Experimental data: publication PMC9088311, “Cyclic Thiosulfonates for Thiol-Mediated Uptake: Cascade Exchangers, Transporters, Inhibitors” (JACS Au, 2022)
Where “and” joins values, the source holds several entries; their conditions need not be identical. Equal entries are not always repeated.

Assay: Dynamic covalent ring opening with thiol 10, 1H NMR kinetics
Format: physicochemical
Method: The dynamic covalent opening of CTO 3 with thiols yields product 9 with a disulfide and a sulfinate (Figure 3B). Consistent with short chalcogen bonds found in silico, the opening of CTO 3 was instantaneous on an NMR timescale with most thiols. To decelerate ring opening, bulky thiols were considered in combination with lowered pH to deactivate the nucleophile. With N-Ac-D-penicillamine 10, the opening of 5 mM CTO 3 in phosphate buffer/DMSO-d6 9:1 was still immediate at pD 6.7 but became detectable in ^1H NMR spectroscopy kinetics under more acidic conditions. The ring-opening rate constants k^O were estimated by fitting the initial velocities to second-order kinetics. Only lower bound rates were approximated from the earliest determined substrate conversions when reactions were still too fast despite the unfavorable conditions. At pD 5.4, dynamic covalent ring opening of CTO 3 with equimolar tertiary thiol 10 occurred with k^O > 0.49 M^–1 s^–1 and equilibrated at K = 6.0 × 10^3 M^–1 (Table 1, entry 1, Figures S4 and S5). At pD 2.7, further deceleration to k^O = 0.10 M^–1 s^–1 shifted the equilibrium to K = 500 M^–1 (Table 1, entry 2, Figures S6 and S7). […] At equilibrium, the concentration of thiol 10 further decreased slowly due to oxidation into the homodimer (Figure 3C, diamonds).
Equilibrium constants for reactions with two reactants A and B and a product C are […]
3.1.1. Dynamic Covalent Ring Opening with Thiols
General procedure A (at 5 mM): To a solution of deuterated sodium phosphate (200 mM in D 2O, pD 2.7 or 5.4, 180 mM final concentration), a stock solution of substrate (0.10 M in DMSO-d6, 5.0 mM final concentration) was added and stirred. Then a stock solution of 10 (0.10 M in DMSO- d6, 5.0 mM final concentration) was added and vigorously stirred at room temperature. The solution was transferred immediately to an NMR tube and NMR data were recorded repeatedly. The concentration of the substrate or thiol at each time plot was calculated by comparing the integrals of the peaks indicated with arrows in the figures, and plotted. The data points were fitted to obtain k1 with the Equation (S6) or (S7) using Graphpad Prism.
General procedure B (at 2 mM): To a solution of deuterated sodium phosphate (200 mM in D 2O, pD 2.7 or 5.4, 180 mM final concentration), DMSO- d6 (10% DMSO- d6 in the reaction mixture) and a stock solution of substrate (0.10 M in DMSO- d6, 2.0 mM final concentration) were added and stirred. Then a stock solution of 10 (0.10 M in DMSO- d6, 2.0 mM final concentration) was added and vigorously stirred at room temperature. The solution was transferred immediately to an NMR tube and NMR data were recorded repeatedly. The concentration of the substrate or thiol at each time plot was calculated by comparing the integrals of the peaks indicated with arrows in the figures, and plotted. The data points were fitted to obtain k1 with the Equation (S6) or (S7) using Graphpad Prism.
General procedure C (for thiosulfinates): To a solution of deuterated sodium phosphate (200 mM in D 2O, pD 5.4, 170 mM final concentration), a stock solution of substrate (0.10 M in DMSO- d6, 5.0 mM final concentration) was added and stirred. Then a stock solution of 10 (0.10 M in DMSO- d6, 10 mM final concentration) was added and vigorously stirred at room […]
data points were fitted to obtain k1 with the Equation (S14) or (S16) using Graphpad Prism. […]
3.1.2. Dependence of Ring Opening on Proticity
A mixture of deuterated phosphoric acid and NaOD (30% in D 2O), which gave pD 2.7 in D2O, was used as buffer in all solvent mixtures. To a solution of deuterated sodium phosphate (20 mM final concentration) in a mixture of D 2O and DMSO- d6 (540 μL, final D 2O content: […]
concentration) was added and stirred. Then a stock solution of 10 (0.10 M in DMSO- d6, 5.0 mM final concentration) was added and vigorously stirred at room temperature. The solution was transferred immediately to an NMR tube and 1H NMR data were recorded repeatedly. […]

[1] = equimolar 10, rt, pD 2.7, 90% D2O, Na+ phosphate 180 mM, substrate 2 mM

O=C1O[C@H]2CSS(=O)(=O)C[C@H]2O1 [Compound 11]
k^O, rate constant of ring opening (or equivalent for acyclic controls) [1]: >12 M^–1 s^–1
krel^O, rate constant of ring opening relative to 3 (pD 2.7, 90% D2O, 2 mM): >120
ring opening faster than 3 (fold) (with thiol 10, pD 2.7): > 100 ×

[O-][S+]1C[C@@H](O)[C@@H](O)CS1 (some centres unmarked) [Compound 2]
k^O, rate constant of ring opening (or equivalent for acyclic controls) (2 equiv of 10, rt, pD 5.4, 85% D2O, Na+ phosphate 170 mM, substrate 5 mM): 0.001 M^–1 s^–1
krel^O, rate constant of ring opening relative to 3 (pD 5.4, 85% D2O, 5 mM, 2 equiv of 10): <0.002
ring opening/exchange slower than CTO 3 (fold) (with thiol 10, pD 5.4): > 500 ×

O=S1(=O)C[C@H](O)[C@H](O)CS1 (stereo in doubt) [Compound 3, (4S,5R)-4,5-dihydroxy-1,2-dithiane-1,1-dioxide]
k^O, rate constant of ring opening (equimolar 10, rt, pD 2.7, 90% D2O/DMSO-d6, Na+ phosphate 180 mM, substrate 5 mM): 0.10 M^–1 s^–1 and 0.10 ^i M^–1 s^–1
k^O, rate constant of ring opening (or equivalent for acyclic controls) (equimolar 10, rt, pD 5.4, 90% D2O/DMSO-d6, Na+ phosphate 180 mM, substrate 5 mM): >0.49 M^–1 s^–1
k^O, rate constant of ring opening (estimated pD 2.7, Na+ phosphate 20 mM, 2% D2O, 5 mM): >1.4 M^–1 s^–1
k^O, rate constant of ring opening (estimated pD 2.7, Na+ phosphate 20 mM, 5% D2O, 5 mM): >1.3 M^–1 s^–1
k^O, rate constant of ring opening (estimated pD 2.7, Na+ phosphate 20 mM, 8% D2O, 5 mM): >1.4 M^–1 s^–1
k^O, rate constant of ring opening (estimated pD 2.7, Na+ phosphate 20 mM, 10% D2O, 5 mM): >2.1 M^–1 s^–1
k^O, rate constant of ring opening (estimated pD 2.7, Na+ phosphate 20 mM, 30% D2O, 5 mM): >2.8 M^–1 s^–1
k^O, rate constant of ring opening (estimated pD 2.7, Na+ phosphate 20 mM, 50% D2O, 5 mM): >1.3 M^–1 s^–1
k^O, rate constant of ring opening (estimated pD 2.7, Na+ phosphate 20 mM, 70% D2O, 5 mM): 0.28 ± 0.03 M^–1 s^–1 and 0.28 M^–1 s^–1
k^O, rate constant of ring opening (estimated pD 2.7, Na+ phosphate 20 mM, 90% D2O, 5 mM): 0.15 ± 0.01 M^–1 s^–1 and 0.15 M^–1 s^–1
krel^O, rate constant of ring opening relative to 3 (pD 2.7, 90% D2O, 5 mM): 1
krel^O, rate constant of ring opening relative to 3 (pD 5.4, 90% D2O, 5 mM): 1

O=S1(=O)C=C[C@@H](O)CS1 [Compound 12]
k^O, rate constant of ring opening (or equivalent for acyclic controls) [1]: >6.1 M^–1 s^–1
krel^O, rate constant of ring opening relative to 3 (pD 2.7, 90% D2O, 2 mM): >61
